From patent US20230365582A1, “NOVEL COMPOUNDS HAVING INHIBITORY ACTIVITY ON PROSTAGLANDIN E2 RECEPTOR AND USES THEREOF” (KANAPH THERAPEUTICS INC., priority 2020, published 2023)

Assays:
[1] = molecular target: T1, hEP4 (Homo sapiens, UniProt P35408); experiment: hEP4 cAMP assay; assay type: cell-based; settings: HEK293 cells overexpressing hEP4; PGE2 agonist 20 nM; graded per Table 21; read-out: IC50 (nM) EP4 cAMP
T1 construct: expressed in transfected cells; host or cells: HEK293
Method: (§1) HEK293 cells overexpressing hEP4 were cultured in growth medium (GM: MEM (Gibco™, 11095080)/10% HI FBS (Gibco™, 10082147)/1% penicillin/streptomycin). Before the experiment, the growth medium was removed, and starvation medium (HBSS (Gibco™ 14025076)/10% GM) was added. Thereafter, the cells were incubated for 4 hours. HEK293 cells harboring hEP4 were detached from the culture dish with a non-enzymatic cell dissociation buffer (Gibco™, 15040066). The cells were resuspended in assay buffer (AB: HBSS, 0.1% BSA stabilizer, 0.5 mM IBMX, 5 mM HEPES).
(§2) 1,000 cells in 5 μL of AB were seeded per well in a 384 well plate (Corning®, 3570), and stock solutions of test compounds were prepared at a concentration of 1 mM in DMSO and serially diluted in DMSO to the concentration required for the inhibition dose response curve (test concentration range of 10 μM-0.001 nM). PGE2 (Sigma, P0409, stock solution: 100 μM) was used as an agonist at a final concentration of 20 nM corresponding to EC50-80. 2.5 μL of the diluted compound and 2.5 μL of PGE2 (20 nM final concentration) were transferred to the assay plate, and then the plate was incubated at room temperature for 18.5 minutes.
(§3) 5 μL of each donor (Eu-cAMP tracer) and acceptor (ULight-anti-cAMP) was added, and the plate was incubated in the dark for 1 hour at room temperature, and then a Varioskan LUX multimode microplate reader was used to obtain the results (excitation: 334 nm, emission: 615 and 665 nm). The resulting FRET fluorescence value (665 nm/615 nm*10000) was converted and then calculated as a percentage of cAMP compared to the DMSO control value. IC50 values and curves were generated with GraphPad Prism software using log (inhibitor) versus response-variable slope (4 parameters), and the median of multiple experiments was taken as the experiment result.

[2] = molecular target: T2, hEP2 (Homo sapiens, UniProt P43116); experiment: hEP2 cAMP assay; assay type: cell-based; settings: HEK293 cells overexpressing hEP2; PGE2 agonist 400 pM; graded per Table 21; read-out: IC50 (nM) EP2 cAMP
T2 construct: expressed in transfected cells; host or cells: HEK293
Method: as §1, with “overexpressing hEP2” for “overexpressing hEP4”, “(HBSS (Gibco™,” for “(HBSS (Gibco™”, “hours. The” for “hours.”, “harboring hEP2” for “harboring hEP4”
as §2, with “(Corning™,” for “(Corning®,”, “1” for “100”, “400 pM” for “20 nM”, “(400 pM” for “(20 nM”, “12” for “18.5”
as §3, with “relative” for “compared”, “slopes” for “slope”

T1 sequence (P35408 whole entry): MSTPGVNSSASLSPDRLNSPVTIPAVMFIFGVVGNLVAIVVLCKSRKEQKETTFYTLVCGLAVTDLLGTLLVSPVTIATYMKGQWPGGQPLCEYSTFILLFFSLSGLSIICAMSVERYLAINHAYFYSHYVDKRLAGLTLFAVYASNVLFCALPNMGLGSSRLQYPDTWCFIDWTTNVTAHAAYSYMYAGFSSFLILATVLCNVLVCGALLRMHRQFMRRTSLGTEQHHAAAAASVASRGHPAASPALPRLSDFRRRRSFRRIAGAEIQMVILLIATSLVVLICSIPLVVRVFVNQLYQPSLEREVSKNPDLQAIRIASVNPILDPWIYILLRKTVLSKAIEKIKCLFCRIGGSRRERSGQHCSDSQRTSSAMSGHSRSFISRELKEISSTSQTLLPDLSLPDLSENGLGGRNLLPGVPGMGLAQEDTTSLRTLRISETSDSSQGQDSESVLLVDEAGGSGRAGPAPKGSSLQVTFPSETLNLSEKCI
T2 sequence (P43116 whole entry): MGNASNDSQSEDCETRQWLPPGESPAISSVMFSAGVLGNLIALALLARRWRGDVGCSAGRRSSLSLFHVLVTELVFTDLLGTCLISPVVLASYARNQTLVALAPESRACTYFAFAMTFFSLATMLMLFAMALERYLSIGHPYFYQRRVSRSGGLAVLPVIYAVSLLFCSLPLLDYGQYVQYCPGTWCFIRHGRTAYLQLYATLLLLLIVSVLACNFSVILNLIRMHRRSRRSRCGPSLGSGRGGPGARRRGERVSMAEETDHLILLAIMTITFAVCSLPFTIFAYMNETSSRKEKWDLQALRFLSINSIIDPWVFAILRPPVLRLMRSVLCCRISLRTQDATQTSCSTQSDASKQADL

Row | SMILES | IC50 [1] [nM] | IC50 [2] [nM]
1 | O=C(NC1CC2(C1)CC(C(=O)O)C2)c1sccc1Cc1ccc(-c2ccccc2)cc1 (centres unmarked) [Example 18, 6-(3-([1,1′-biphenyl]-4-ylmethyl)thiophene-2-carboxamido)spiro[3.3]heptane-2-carboxylic acid] | 500 to 5000 | 500 to 5000
2 | COc1cc(F)cc(-c2ccc(Cc3ccsc3C(=O)NC3CC4(C3)CC(C(=O)O)C4)cc2)c1 (centres unmarked) [Example 19, 6-(3-((3′-fluoro-5′-methoxy-[1,1′-biphenyl]-4-yl)methyl)thiophene-2-carboxamido) spiro[3.3]heptane-2-carboxylic acid] | < 500 | 500 to 5000
3 | Cc1scc(C(=O)NC2CC3(C2)CC(C(=O)O)C3)c1Cc1ccc(-c2ccccc2)cc1 (centres unmarked) [Example 20, 6-(4-([1,1′-biphenyl]-4-ylmethyl)-5-methylthiophene-3-carboxamido)spiro[3.3]heptane-2-carboxylic acid] | < 500 | 500 to 5000
4 | O=C(NC1CC2(C1)CC(C(=O)O)C2)c1csc(-c2ccccc2)c1Cc1ccc(-c2ccccc2)cc1 (centres unmarked) [Example 21, 6-(4-([1,1′-biphenyl]-4-ylmethyl)-5-phenylthiophene-3-carboxamido)spiro[3.3] heptane-2-carboxylic acid] | > 10000 | > 10000
5 | O=C(NC1CC2(C1)CC(C(=O)O)C2)c1csc(C2CC2)c1Cc1ccc(-c2ccccc2)cc1 (centres unmarked) [Example 22] | 500 to 5000 | 500 to 5000
6 | Cc1sc(C)c(C(=O)NC2CC3(C2)CC(C(=O)O)C3)c1Cc1ccc(Cl)cc1 (centres unmarked) [Example 23, 6-(4-(4-chlorobenzyl)-2,5-dimethylthiophene-3-carboxamido)spiro[3.3]heptane-2-carboxylic acid] | > 10000 | > 10000
7 | COc1ccccc1-c1ccc(Cc2c(C)sc(C)c2C(=O)NC2CC3(C2)CC(C(=O)O)C3)cc1 (centres unmarked) [Example 24, 6-(4-((2′-methoxy-[1,1′-biphenyl]-4-yl)methyl)-2,5-dimethylthiophene-3-carboxamido)spiro[3.3] heptane-2-carboxylic acid] | 500 to 5000 | > 10000
8 | Cc1sc(C)c(C(=O)NC2CC3(C2)CC(C(=O)O)C3)c1Cc1ccc(-c2ccccc2O)cc1 (centres unmarked) [Example 25, 6-(4-((2′-hydroxy-[1,1′-biphenyl]-4-yl)methyl)-2,5-dimethylthiophene-3-carboxamido)spiro[3.3] heptane-2-carboxylic acid] | 5000 to 10000 | > 10000
9 | Cc1sc(C)c(C(=O)NC2CC3(C2)CC(C(=O)O)C3)c1Cc1ccc(-c2ccncc2)cc1 (centres unmarked) [Example 26, 6-(2,5-dimethyl-4-(4-(pyridin-4-yl)benzyl)thiophene-3-carboxamido)spiro[3.3]heptane-2-carboxylic acid] | 500 to 5000 | > 10000
10 | Cc1sc(C)c(C(=O)NC2CC3(C2)CC(C(=O)O)C3)c1Cc1ccc(-c2cccnc2)cc1 (centres unmarked) [Example 27, 6-(2,5-dimethyl-4-(4-(pyridin-3-yl)benzyl)thiophene-3-carboxamido)spiro[3.3]heptane-2-carboxylic acid] | 500 to 5000 | > 10000
11 | Cc1ccc(-c2ccc(Cc3c(C)sc(C)c3C(=O)NC3CC4(C3)CC(C(=O)O)C4)cc2)cc1C (centres unmarked) [Example 28, 6-(4-((3′,4′-dimethyl-[1,1′-biphenyl]-4-yl)methyl)-2,5-dimethylthiophene-3-carboxamido)spiro[3.3]heptane-2-carboxylic acid] | < 500 | 500 to 5000
12 | COc1cccc(-c2ccc(Cc3c(C)sc(C)c3C(=O)NC3CC4(C3)CC(C(=O)O)C4)cc2)c1 (centres unmarked) [Example 29, 6-(4-((3′-methoxy-[1,1′-biphenyl]-4-yl)methyl)-2,5-dimethylthiophene-3-carboxamido)spiro[3.3]heptane-2-carboxylic acid] | < 500 | 500 to 5000
13 | Cc1sc(C)c(C(=O)NC2CC3(C2)CC(C(=O)O)C3)c1Cc1ccc(-c2cccc(C#N)c2)cc1 (centres unmarked) [Example 30] | < 500 | > 10000
14 | CCc1ccc(-c2ccc(Cc3c(C)sc(C)c3C(=O)NC3CC4(C3)CC(C(=O)O)C4)cc2)cc1 (centres unmarked) [Example 31, 6-(4-((4′-ethyl-[1,1′-biphenyl]-4-yl)methyl)-2,5-dimethylthiophene-3-carboxamido)spiro[3.3]heptane-2-carboxylic acid] | < 500 | 5000 to 10000
15 | Cc1sc(C)c(C(=O)NC2CC3(C2)CC(C(=O)O)C3)c1Cc1ccc(C2=CCCCC2)cc1 (centres unmarked) [Example 32, 6-(2,5-dimethyl-4-((2′,3′,4′,5′_ tetrahydro-[1,1′-biphenyl]-4-yl)methyl)thiophene-3-carboxamido)spiro[3.3]heptane-2-carboxylic acid] | 500 to 5000 | > 10000
16 | Cc1sc(C)c(C(=O)NC2CC3(C2)CC(C(=O)O)C3)c1Cc1ccc(-c2ccoc2)cc1 (centres unmarked) [Example 33, 6-(4-(4-(furan-3-yl)benzyl)-2,5-dimethylthiophene-3-carboxamido)spiro[3.3]heptane-2-carboxylic acid] | < 500 | 500 to 5000
17 | COc1cc(F)cc(-c2ccc(Cc3c(C)sc(C)c3C(=O)NC3CC4(C3)CC(C(=O)O)C4)cc2)c1 (centres unmarked) [Example 34, 6-(4-((3′-fluoro-5′-methoxy-[1,1′-biphenyl]-4-yl)methyl)-2,5-dimethylthiophene-3-carboxamido)spiro[3.3]heptane-2-carboxylic acid] | < 500 | 500 to 5000
18 | Cc1sc(C)c(C(=O)NC2CC3(C2)CC(C(=O)O)C3)c1Cc1ccc(-c2ccc(S(C)(=O)=O)cc2)cc1 (centres unmarked) [Example 35, 6-(2,5-dimethyl-4-((4′-(methylsulfonyl)-[1,1′-biphenyl]-4-yl)methyl)thiophene-3-carboxamido)spiro[3.3]heptane-2-carboxylic acid] | 5000 to 10000 | > 10000
19 | Cc1sc(C)c(C(=O)NC2CC3(C2)CC(C(=O)O)C3)c1Cc1ccc(-c2ccc(C(=O)OC(C)(C)C)cc2)cc1 (centres unmarked) [Example 36, 6-(4-((4′-(tert-butoxycarbonyl)-[1,1′-biphenyl]-4-yl)methyl)-2,5-dimethylthiophene-3-carboxamido)spiro[3.3]heptane-2-carboxylic acid] | < 500 | 5000 to 10000
20 | Cc1sc(C)c(C(=O)NC2CC3(C2)CC(C(=O)O)C3)c1Cc1ccc(-c2ccc(F)c(C(=O)O)c2)cc1 (centres unmarked) [Example 37, 6-(4-((3′-carboxy-4′-fluoro-[1,1′-biphenyl]-4-yl)methyl)-2,5-dimethylthiophene-3-carboxamido)spiro[3.3]heptane-2-carboxylic acid] | 5000 to 10000 | > 10000
21 | Cc1ccccc1-c1ccc(Cc2c(C)sc(C)c2C(=O)NC2CC3(C2)CC(C(=O)O)C3)cc1 (centres unmarked) [Example 38, 6-(2,5-dimethyl-4-((2′-methyl-[1,1′-biphenyl]-4-yl)methyl)thiophene-3-carboxamido)spiro[3.3]heptane-2-carboxylic acid] | 500 to 5000 | > 10000
22 | Cc1sc(C)c(C(=O)NC2CC3(C2)CC(C(=O)O)C3)c1Cc1ccc(-c2cnn(C)c2)cc1 (centres unmarked) [Example 39, 6-(2,5-dimethyl-4-(4-(1-methyl-1H-pyrazol-4-yl)benzyl)thiophene-3-carboxamido)spiro[3.3]heptane-2-carboxylic acid] | 500 to 5000 | > 10000
